In PubChem BioAssay (NCI):
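These data come from cells grown in 96-well plates and exposed to compound for 48 hours at five concentrations. Abbreviation: GI50, concentration required for 50% inhibition of growth. TGI marks complete inhibition of growth.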

Legend:
Assay in all cases: NCI-60 cell line screen, 48 h
[1] = system: RXF 393 renal
[2] = system: IGROV1 ovarian
[3] = system: TK-10 renal
[4] = system: RPMI-8226 leukemia
[5] = system: T-47D breast
[6] = system: M14 melanoma
[7] = system: COLO 205 colon
[8] = system: HT29 colon
[9] = system: NCI-H522 lung
[10] = system: HOP-62 NSCLC

| Compound | GI50 [1] [µM] | TGI [1] [µM] | GI50 [2] [µM] | TGI [2] [µM] | GI50 [3] [µM] | TGI [3] [µM] | GI50 [4] [µM] | TGI [4] [µM] | GI50 [5] [µM] | TGI [5] [µM] | GI50 [6] [µM] | TGI [6] [µM] | GI50 [7] [µM] | TGI [7] [µM] | GI50 [8] [µM] | TGI [8] [µM] | GI50 [9] [µM] | TGI [9] [µM] | GI50 [10] [µM] | TGI [10] [µM] |
| --- | --- | --- | --- | --- | --- | --- | --- | --- | --- | --- | --- | --- | --- | --- | --- | --- | --- | --- | --- | --- |
| Cc1cnc2oc3ccc(O)cc3c2c1-c1ccccc1 | 18.5 | 67.3 | 47 | > 100 | 20.3 | > 100 | > 100 | > 100 | 3.63 | > 100 | > 100 | > 100 | > 100 | > 100 | > 100 | > 100 | 44.9 | > 100 | 27.3 | 83.4 |
| O=C(NCCCl)Nc1cccnc1 |  | > 100 |  | 35.6 |  | 27.7 |  | 86.6 |  | 59.5 |  | > 100 |  | 51.3 |  | 34.9 |  | 62.1 |  | > 100 |
| Cn1c2c(c3ccccc31)CCN(CCCCN1CCN(c3ccccc3)CC1)C2=O |  | 76.4 |  | > 100 |  | > 90.4 |  | > 92.3 |  | > 100 |  | 16.9 |  | 26.2 |  | 25.4 |  | > 100 |  | > 100 |
| C=CC(=O)N1C[C@@H]2CCOc3c(Cl)c(-c4c(O)cccc4F)c(F)c4ncnc(c34)N2C[C@H]1C | 2.15 | 15.1 | 17.4 | 46.6 | 16.1 | 33.3 | 5.96 | > 100 | 14.9 | 87.4 | 12.5 | 27.7 | 17.6 | 35.9 | 18.6 | 52.5 | 14.2 | 30.9 | 0.0507 | 25.5 |
| COc1cc([N+](=O)[O-])c(OC)cc1-c1nc2sc(C)cn2c1/C(N)=N/C(=N)N | 39.8 | > 100 | 32.9 | > 100 | 20.3 | 50.4 | 84.1 | > 100 | > 100 | > 100 | > 100 | > 100 | > 100 | > 100 | > 100 | > 100 | 26.5 | > 100 | 71.3 | > 100 |
| C#Cc1cccc(Nc2ncnc3ccc(OCCCCNCCS(C)(=O)=O)cc23)c1 | 5.32 | > 22.6 | 2.12 | > 16.3 | 0.238 | 6.27 | 4.59 | 15.3 | 7.2 | > 25 | 5.11 | 9.66 | 5.58 | 12.3 | 5.44 | 12.5 | 2.97 | 7.86 | 11.5 | > 25 |
| COC1=C(C)C(=O)c2c(c(CCCl)c3n2CCC3OC(C)=O)C1=O (stereo not given) | 0.167 | 0.39 | 1.65 | 10.1 | 0.26 | 0.626 | 2.84 | 27.3 | 8.22 | > 94.6 | 0.171 | 0.592 | 0.136 | 0.399 | 0.152 | 1.89 | 0.192 | 0.85 | 0.122 | 0.793 |
| O=C(C=P(c1ccccc1)(c1ccccc1)c1ccccc1)CCl | 1.01 | 2.41 | 1.97 | 5.75 | 1.69 | 3.12 | 0.965 | 4.45 | 1.04 | 2.99 | 1.36 | 3.89 | 1.53 | 3.66 | 1.13 | 2.8 | 0.396 | 1.64 | 2.62 | 7.93 |
| Cc1ccc(C=C2C(Cl)=C(Cl)C(Cl)=C2Cl)cc1 | 0.308 | 0.906 | 0.553 | 1.64 | 0.972 | 2.55 | 0.224 | 0.653 | 1.02 | 2.79 | 0.561 | 1.66 | 0.737 | 2.09 | 0.796 | 2.89 | 0.322 | 1.01 | 2.13 | 4.44 |
| CC(C)[C@@](O)(c1ccc2cc(OC(F)F)c(OC(F)F)cc2c1)c1cn[nH]n1 | 15.4 | 29.8 | 18.7 | 63.8 | 14.9 | 32.9 | 17.3 | 61.4 | 13.4 | 53.1 | 16 | 33.4 | 17.2 | 35.1 | 18.6 | 41.6 | 14.3 | 32.3 | 15.3 | 30.7 |
| CN(C)CCCSc1ccccc1NC1=C(Cl)C(=O)C(Nc2ccccc2SCCCN(C)C)=C(Cl)C1=O | 1.92 | 3.35 | 1.39 | 3.44 | 2.22 | 3.7 | 2.35 | 5.62 | 1.45 | 3.98 | 1.74 | 3.72 | 2.08 | 4.03 | 2.13 | 4.16 | 1.07 | 2.89 | 3.59 | 10.6 |
| COC(=O)[C@]12CC[C@@H](C)[C@H](C)[C@@H]1C1=CC[C@@H]3[C@@]4(C)C[C@@H](OC(=O)/C=C/c5ccccc5)[C@H](O)[C@@](C)(CO)[C@@H]4[C@H](O)C[C@@]3(C)[C@]1(C)CC2 | 1.74 | 3.84 | 3.61 | 14 | 2.26 | 6.33 | 2.54 | 7.86 | 2.34 | 10.9 | 2.65 | 8.58 | 1.91 | 4.12 | 1.8 | 3.81 | 1.53 | 3.36 | 1.91 | 5.43 |
| COc1ccc(C(=NN=C(N)N)c2ccc(OC)cc2)cc1 | 1.81 | 4.82 | 2.97 | 13.7 | 4.26 | 14.5 | 5.46 | 21.8 | 3.21 | 15.1 | 2.35 | 6.36 | 1.79 | 3.97 | 2.95 | 12.6 | 2.9 | 13.4 | 3.9 | 15.5 |
| CCOC(=O)C1=C(C)NC(=O)NC1CN1C(=O)c2ccccc2C1=O (stereo not given) | > 100 | > 100 | > 100 | > 100 | > 100 | > 100 | > 100 | > 100 | > 100 | > 100 | > 100 | > 100 | > 100 | > 100 | > 100 | > 100 | > 100 | > 100 | > 100 | > 100 |
